Values quoted from earlier work in patent publication US7446116B2, “Montelukast amantadine salt” (Synthon BV, priority 2006, dated 2008).
Counter-ions that a name gives are not always drawn.

Experiments:
[1] = tested on: human patient; conditions: doses of at least 200 mg per day
[2] = tested on: rats; conditions: oral administration

| SMILES | safety for a human patient [1] | toxicity, expressed as LD50 value [2] [mg/kg] |
| --- | --- | --- |
| NC12CC3CC(CC(C3)C1)C2 [amantadine hydrochloride] | safe and nontoxic |  |
| CC(C)(C)N [tert.butyl amine] |  | 44 |
